Read-outs that look alike come from different tables or passages of the source.
Experiments:
[1] = Solubility of quenched linker-payloads; conditions: Table 3c, linker-payloads quenched with taurine-PEG4-azide or CD-N3
[2] = Solubility of linker-payloads and quenched linker-payloads; assay type: physicochemical; conditions: water; quenched linker-payloads, Table 6a; read-out: Solubility
Source text: The quenched linker-payloads were water soluble and used for the pH stability test.

[3] = pH stability of quenched linker-payloads in buffers (LCMS); assay type: physicochemical; conditions: RT
Method: To a solution of compound (payloads or quenched-linker-payloads) in DMSO (0.2-1.0 mg/mL) was added corresponding PBS buffer (V(buffer)/V(DMSO)=5) to give test samples (pH 3, 4, 5, 6, 7.4, and 8.5, or other special pH). The test samples were incubated at RT for at least 3 days and monitored by LCMS (i.e., at 1 hr, 2 hr, 4 hr, 8 hr, and 1 day, 2 day, 3 day, 4 day, 5 day, 6 day, 7 day, 8 day, 9 day, and 21 day time points). Initial concentrations of the samples were 0.2 mg/mL (DMSO/buffer, v/v=1/5). […] The payloads and quenched linker-payloads were mostly stable at pH >5.0, 6.0, 7.4 and 8.5 after 3 days. In more acidic conditions, such as pH 1.0, the payloads or linker-payloads were easily cleaved to release D*-OH.

[4] = target: T1, human macrophage scavenger receptor 1 (MSR1) (human, UniProt P21757 1-451); experiment: cell-based or functional assay
T1 sequence (looked up): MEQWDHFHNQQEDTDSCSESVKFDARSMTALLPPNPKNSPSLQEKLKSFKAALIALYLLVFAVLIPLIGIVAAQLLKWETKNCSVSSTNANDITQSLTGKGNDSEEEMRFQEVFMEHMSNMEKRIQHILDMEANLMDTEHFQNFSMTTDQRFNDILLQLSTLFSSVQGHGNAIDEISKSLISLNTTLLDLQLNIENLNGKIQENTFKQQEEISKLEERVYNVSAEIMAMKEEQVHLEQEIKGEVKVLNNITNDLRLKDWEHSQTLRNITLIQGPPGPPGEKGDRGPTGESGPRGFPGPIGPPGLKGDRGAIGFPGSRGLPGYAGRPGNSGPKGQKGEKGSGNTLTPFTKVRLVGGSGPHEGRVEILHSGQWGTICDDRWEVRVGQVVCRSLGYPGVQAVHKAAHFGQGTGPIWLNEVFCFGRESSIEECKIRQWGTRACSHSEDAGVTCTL

[5] = target: T1, human macrophage scavenger receptor 1 …; experiment: cell-based or functional assay; remark: listed apart in the source
GR = target: T2, GR (Homo sapiens, UniProt P04150); experiment: GR luciferase reporter assay in HEK293/GRLuc cells; assay type: cell-based
T2 construct: host or cells: HEK293 (HEK293/GRLuc; HEK293/GRLuc/MSR1 additionally transduced with human MSR1)
T2 sequence (P04150 524-758 limits assumed): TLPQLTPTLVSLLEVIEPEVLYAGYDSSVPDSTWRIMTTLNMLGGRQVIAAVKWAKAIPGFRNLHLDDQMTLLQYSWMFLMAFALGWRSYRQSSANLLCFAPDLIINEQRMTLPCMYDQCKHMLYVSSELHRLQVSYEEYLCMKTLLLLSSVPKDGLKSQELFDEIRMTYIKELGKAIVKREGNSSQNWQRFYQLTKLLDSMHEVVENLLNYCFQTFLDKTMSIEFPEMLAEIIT
Method: Activity of anti-MSR1 ncADCs were tested using an MSR1 ADC steroid responsive luciferase reporter assay. To generate the assay cell line, HEK293 cells were co-transfected with the pBind-GR (Promega, Cat #E158A) and pGL4.35 [Luc2P/9xGAL4UAS/Hygro] (Promega, Cat #E137A) vectors. The pBind-GR vector expresses a fusion protein consisting of the GR ligand binding and the yeast Gal4DNA-binding domain, which binds to the Gal4 upstream activation sequence (UAS) in the luciferase expression vector, that can induce luciferase expression following GR agonist binding. The cells were selected for at least 2 weeks in G418+hygromycin and the resulting cell line is referred to as HEK293/GRLuc. HEK293/GRLuc cells were then transduced with a human MSR1 lentiviral expression vector and 48 hours later cells were sorted for MSR1 positive cells. The resulting cell line is referred to as HEK293/GRLuc/MSR1.
Three-fold serial dilutions of ncADCs in assay buffer were added to the cells for 48 hours. The last well in the plate served as blank control containing only the assay media and was plotted as a continuation of the 3-fold serial dilution. Luciferase activity was determined using the One-Glo™ reagent (Promega, Cat #E6130). Relative light units (RLUs) were measured on an Envision luminometer (PerkinElmer) and EC50 values were determined using a four-parameter logistic equation over a 10-point dose response curve (GraphPad Prism). The signal to noise (S/N) was determined by taking the ratio of the highest RLU on the dose response curve to the RLU in the untreated wells.
To test the activity of GR agonist payloads disclosed herein, a cell-based GR responsive luciferase reporter assay was developed as described above.
Three-fold serial dilutions of free payloads were prepared in 100% DMSO, transferred to fresh assay media, and added to the cells for 48 hours. […] The last well in the plate served as blank control containing only the assay media and 0.2% DMSO (untreated well) and was plotted as a continuation of the 3-fold serial dilution. Luciferase activity was determined using the One-Glo™ reagent (Promega, Cat #E6130). Relative light units (RLUs) were measured on an Envision luminometer (PerkinElmer) and EC50 values were determined using a four-parameter logistic equation over a 10-point dose response curve (GraphPad Prism). The signal to noise (S/N) was determined by taking the ratio of the highest RLU on the dose response curve to the RLU in the untreated wells.

Question: Which “Solubility” value [1] does the source give for CCCC1O[C@@H]2C[C@H]3[C@@H]4C[C@H](F)C5=CC(=O)C=C[C@]5(C)[C@@]4(F)[C@@H](O)C[C@]3(C)[C@]2(C(=O)COCNC(=O)CNC(=O)CNC(=O)OCc2ccc(NC(=O)[C@H](CCCNC(N)=O)NC(=O)[C@@H](NC(=O)CCOCCOCCOCCOCCNC(=O)CCC(=O)N3Cc4ccccc4-c4c(nnn4CCOCCOCCOCCOCCC(=O)NCCS(=O)(=O)O)-c4ccccc43)C(C)C)cc2)O1 (stereo partly shown) [Q1L1-PIII-4] here?
Answer: >1 mg/mL

Question: Which Solubility [2] does the source give for CC(C)[C@H](NC(=O)CCOCCOCCOCCOCCNC(=O)CCC(=O)N1Cc2ccccc2-c2c(nnn2CCOCCOCCOCCOCCC(=O)NCCS(=O)(=O)O)-c2ccccc21)C(=O)N[C@@H](CCCNC(N)=O)C(=O)Nc1ccc(COC(=O)NCC(=O)NCOCC(=O)[C@@]2(O)[C@H](C)C[C@H]3[C@@H]4CCC5=CC(=O)C=C[C@]5(C)[C@@]4(F)[C@@H](O)C[C@@]32C)cc1 [Q1L1-PI] here?
Answer: > 1000 µg/mL

Question: And the “percentage of the remaining compound” value ([3]; DMSO, 1 Day)?
Answer: 100%

Question: What about the “percentage of the remaining compound” value ([3]; DMSO, 2 Day) of the same molecule?
Answer: 100%

Question: And the “percentage of the remaining compound” value ([3]; DMSO, 3 Day)?
Answer: 100%

Question: What about the “percentage of the remaining compound” value ([3]; DMSO, 4 Day) of the same molecule?
Answer: 100%

Question: What about the “percentage of the remaining compound” value ([3]; DMSO, 7 Day) of the same molecule?
Answer: 100%

Question: And the “percentage of the remaining compound” value ([3]; DMSO, 1 hr)?
Answer: 100%

Question: What about the “percentage of the remaining compound” value ([3]; DMSO, 4 hr) of the same molecule?
Answer: 100%

Question: What about the “percentage of the remaining compound” value ([3]; pH 3.0, 1 Day) of the same molecule?
Answer: 100%

Question: What about the “percentage of the remaining compound” value ([3]; pH 3.0, 2 Day) of the same molecule?
Answer: 100%

Question: What about the “percentage of the remaining compound” value ([3]; pH 3.0, 3 Day) of the same molecule?
Answer: 96%

Question: What about the “percentage of the remaining compound” value ([3]; pH 3.0, 4 Day) of the same molecule?
Answer: 95%

Question: And the “percentage of the remaining compound” value ([3]; pH 3.0, 7 Day)?
Answer: 91%

Question: And the “percentage of the remaining compound” value ([3]; pH 3.0, 1 hr)?
Answer: 100%

Question: What about the “percentage of the remaining compound” value ([3]; pH 3.0, 4 hr) of the same molecule?
Answer: 100%

Question: And the “percentage of the remaining compound” value ([3]; pH 4.0, 1 Day)?
Answer: 100%

Question: And the “percentage of the remaining compound” value ([3]; pH 4.0, 2 Day)?
Answer: 100%

Question: What about the “percentage of the remaining compound” value ([3]; pH 4.0, 3 Day) of the same molecule?
Answer: 100%

Question: What about the “percentage of the remaining compound” value ([3]; pH 4.0, 4 Day) of the same molecule?
Answer: 100%

Question: What about the “percentage of the remaining compound” value ([3]; pH 4.0, 7 Day) of the same molecule?
Answer: 100%

Question: What about the “percentage of the remaining compound” value ([3]; pH 4.0, 1 hr) of the same molecule?
Answer: 100%

Question: And the “percentage of the remaining compound” value ([3]; pH 4.0, 4 hr)?
Answer: 100%

Question: And the “percentage of the remaining compound” value ([3]; pH 5.0, 1 Day)?
Answer: 100%

Question: And the “percentage of the remaining compound” value ([3]; pH 5.0, 2 Day)?
Answer: 100%

Question: What about the “percentage of the remaining compound” value ([3]; pH 5.0, 3 Day) of the same molecule?
Answer: 100%

Question: What about the “percentage of the remaining compound” value ([3]; pH 5.0, 4 Day) of the same molecule?
Answer: 100%

Question: What about the “percentage of the remaining compound” value ([3]; pH 5.0, 7 Day) of the same molecule?
Answer: 100%

Question: And the “percentage of the remaining compound” value ([3]; pH 5.0, 1 hr)?
Answer: 100%

Question: And the “percentage of the remaining compound” value ([3]; pH 5.0, 4 hr)?
Answer: 100%

Question: What about the “percentage of the remaining compound” value ([3]; pH 7.4, 1 Day) of the same molecule?
Answer: 100%

Question: What about the “percentage of the remaining compound” value ([3]; pH 7.4, 2 Day) of the same molecule?
Answer: 100%

Question: And the “percentage of the remaining compound” value ([3]; pH 7.4, 3 Day)?
Answer: 100%

Question: And the “percentage of the remaining compound” value ([3]; pH 7.4, 4 Day)?
Answer: 100%

Question: What about the “percentage of the remaining compound” value ([3]; pH 7.4, 7 Day) of the same molecule?
Answer: 100%

Question: And the “percentage of the remaining compound” value ([3]; pH 7.4, 1 hr)?
Answer: 100%

Question: What about the “percentage of the remaining compound” value ([3]; pH 7.4, 4 hr) of the same molecule?
Answer: 100%

B1: H1H21234N-N297Q-L1-PII-1 (antibody, V domains shown)
VH: QVQLQESGPGLVKPSETLSLTCTVTGGSISRNYWSWIRQPPGKGLEWIGYIYYSGSIDYNPSLKSRVTISVDTSKNQFSLKLSSMTAADTAVYYCARDRWNWKYGMDVWGQGTTVIVSS
VL: EIVLTQSPGTLSLSPGERATLSCRASQTVRNNYLAWYHQKPGQAPRLLIYGASSRATGIPDRFSGSGSGTDFTLTISRLEPEDFTVYYCHQYGNSPWTFGQGTKMEIKR
modifications: heavy-chain constant region (not part of this entry): N297Q (EU); linker-payload L1-PII-1 (DIBAC-suc-PEG4-vcPAB-PII-1, payload budesonide) clicked onto azido-PEG3-amine on glutamines; DAR 4
Question: What does the source list for B1?
Answer: EC50, GR luciferase reporter activity in HEK293/GRLuc/MSR1 cells [4]: 609 pM; S/N (highest RLU / RLU in untreated wells), HEK293/GRLuc/MSR1 cells [4]: 128; EC50, GR luciferase reporter activity in HEK293/GRLuc/MSR1 cells [5]: 840 pM; S/N, HEK293/GRLuc/MSR1 cells [5]: 222; EC50 (GR; Table 8, ncADCs, 48 hours): > 100 nM; S/N (GR; Table 8, ncADCs, highest RLU / RLU of untreated wells): 5.4; EC50 (GR; Table 11, ADCs): > 100 nM; S/N (GR; Table 11, ADCs): 4.5

B2: H1H21234N-N297Q-L8-PII-1 (antibody, V domains shown)
VH: QVQLQESGPGLVKPSETLSLTCTVTGGSISRNYWSWIRQPPGKGLEWIGYIYYSGSIDYNPSLKSRVTISVDTSKNQFSLKLSSMTAADTAVYYCARDRWNWKYGMDVWGQGTTVIVSS
VL: EIVLTQSPGTLSLSPGERATLSCRASQTVRNNYLAWYHQKPGQAPRLLIYGASSRATGIPDRFSGSGSGTDFTLTISRLEPEDFTVYYCHQYGNSPWTFGQGTKMEIKR
modifications: heavy-chain constant region (not part of this entry): N297Q (EU); linker-payload L8-PII-1 (COT-PEG4-EvcPAB-G-NHCH2-Bud) conjugated as in Example 5; four DAR ADC
Question: Which “EC50, GR luciferase reporter activity in HEK293/GRLuc/MSR1 cells” value [5] does the source give for B2 here?
Answer: 899 pM

Question: What about the “S/N, HEK293/GRLuc/MSR1 cells” value [5] of the same molecule?
Answer: 280

Question: What about the EC50 (GR; Table 11, ADCs) of the same molecule?
Answer: > 100 nM

Question: And the S/N (GR; Table 11, ADCs)?
Answer: 1.4
